The values that follow come from patent publication US4024246A, “Antibiotic A-22082 and process for production thereof” (Eli Lilly and Company, priority 1976, dated 1977).

Read-outs that look alike come from different tables or passages of the source. *1 amine or outer side, *2 acyl side, *3 side chain or, on linkers, in order; H or OH if unused. Where a SMILES comes first, the peptide text is derived from it. Bridges are numbered along the chain shown (N, C = ends). [ ]: non-standard residue; d: D form. The star is where a group is joined. ξ: configuration not given here. Orn(4R-OH,5R-OH) = O=C([C@H](C[C@@H](O)[C@@H](O)N[*:3])N[*:1])[*:2]; hTyr(3S-OH,4S-OH) = N[C@H](C(=O)O)[C@H](O)[C@@H](O)c1ccc(O)cc1; ξOrn(4,5-diOH) = O=C(C(CC(O)C(O)N[*:3])N[*:1])[*:2]; ξhTyr(βξ-OH,γξ-OH) = NC(C(=O)O)C(O)C(O)c1ccc(O)cc1; Pro(3S-OH,4S-Me) = C[C@H]1CN[C@H](C(=O)O)[C@H]1O; Linoleoyl = CCCCC/C=C\C/C=C\CCCCCCCC(=O)*; ξPro(3ξ-OH,4ξ-Me) = CC1CNC(C(=O)O)C1O; Hyp = O=C(O)[CH]1C[CH](O)CN1; X1 = CCCCCC=CCC=CCCCCCCCC(=O)*

The test system of data set [1] is dermatophytes. The settings on record: reported by F. Benz et al., Helv. Chim. Acta 57, 2459-2477 (1974); cited from earlier work.
In data set [2] the test system is Candida albicans. As to the kind of experiment: disc-diffusion antifungal test, Candida albicans. The data set is classed as cell-based. The settings on record: Table II, 6-mm pads, agar plates. As to the method:
(§1) Antibiotic A-22082 is a useful antifungal agent. […] Antifungal activity was measured by the conventional disc-diffusion method (6-mm pads were dipped in solutions containing antibiotic A-22082; pads were placed on agar plates seeded with test organism). Table II summarizes the minimal inhibitory concentration (MIC) per disc at which antibiotic A-22082 inhibited representative organisms.
(In general: A growth-free zone around the sample is the usual read-out of agar diffusion tests.)

Data set [3] relates to Trichophyton mentagrophytes. As to the kind of experiment: disc-diffusion antifungal test, Trichophyton mentagrophytes. The data set is classed as cell-based. The settings on record: Table II, 6-mm pads, agar plates. As to the method:
as §1
(§2) Antibiotic A-22082 is very active in in vitro disc-diffusion tests against dermatophytes.

A further data set deals with Candida tropicalis. As to the kind of experiment: disc-diffusion antifungal test, Candida tropicalis. The data set is classed as cell-based. The settings on record: Table II, 6-mm pads, agar plates. The method, then: as §1
In another data set the test system is Trichophyton gallinae. As to the kind of experiment: disc-diffusion test, Trichophyton gallinae. The data set is classed as cell-based. The settings on record: Table III; 1 isolate. The method, then: as §1, §2
The next data set deals with Trichophyton meginini. The data set can be described thus: disc-diffusion test, Trichophyton meginini. The data set is classed as cell-based. The settings on record: Table III; 1 isolate. The method, then: as §1, §2
The next data set relates to Trichophyton quinckeanum. The data set can be described thus: disc-diffusion test, Trichophyton quinckeanum. The conditions noted are these: Table III; 1 isolate. The data set is classed as cell-based. As to the method:
as §1, §2

The test system of the next data set is Trichophyton rubrum. As to the kind of experiment: disc-diffusion test, Trichophyton rubrum. The conditions noted are these: Table III; 1 isolate. The data set is classed as cell-based. The method, then:
as §1, §2

Data set [4] relates to Trichophyton schoenleinii. As to the kind of experiment: disc-diffusion test, Trichophyton schoenleinii. The data set is classed as cell-based. The settings on record: Table III; 1 isolate. The method, then:
as §1, §2

Another data set concerns Trichophyton terrestre. As to the kind of experiment: disc-diffusion test, Trichophyton terrestre. The data set is classed as cell-based. The conditions noted are these: Table III; 1 isolate. The method, then:
as §1, §2

In another data set the test system is Nannizzia incurvata. As to the kind of experiment: disc-diffusion test, Nannizzia incurvata. The settings on record: Table III; 1 isolate. The data set is classed as cell-based. The method, then:
as §1, §2

The next data set relates to Philaphere jean salemi. As to the kind of experiment: disc-diffusion test, Philaphere jean salemi. The conditions noted are these: Table III; 1 isolate. The data set is classed as cell-based. As to the method: as §1, §2
Data set [5] has as its system Epidermatophyton floccosum. As to the kind of experiment: disc-diffusion test, Epidermatophyton floccosum. The data set is classed as cell-based. The conditions noted are these: Table III; 1 isolate. The method, then: as §1, §2
A further data set concerns Keratinomyces ajellio. The data set can be described thus: disc-diffusion test, Keratinomyces ajellio. The data set is classed as cell-based. The conditions noted are these: Table III; 1 isolate. The method, then: as §1, §2
In data set [6] the test system is dermatophytes. The data set can be described thus: in vitro activity against dermatophytes. The data set is classed as cell-based. The settings on record: in words. As to the method: as §1, §2
In data set [7] the test system is Candida albicans. As to the kind of experiment: in vivo protection of Candida albicans-infected mice. The conditions noted are these: two doses. The method, then:
A measure of the protection afforded is the ED50 value [the effective dose in mg./kg. which protects 50 percent of the mice; see W. Wick et al., J. Bacteriol. 81, 233-235 (19610]. The ED50 values for antibiotic A-22082 against Candida albicans in mice were 30 mg./kg. (intraperitoneal administration) and 50 mg./kg. (subcutaneous administration).

Another data set concerns mice. The data set can be described thus: acute toxicity in mice. The data set is classed as in vivo. As to the method: 3 times over 24 hours (a total of 600 mg./kg.).
The nature of the next data set: electrometric titration. The data set is classed as physicochemical. The conditions noted are these: 66% aqueous dimethylformamide, initial pH 6.9.
Another data set is described as follows: solubility. The data set is classed as physicochemical.

With `CCCCCC=CCC=CCCCCCCCC(=O)NC1CC(O)C(O)NC(=O)C2C(O)C(C)CN2C(=O)C(C(C)O)NC(=O)C(C(O)C(O)c2ccc(O)cc2)NC(=O)C2CC(O)CN2C(=O)C(C(C)O)NC1=O` (stereo not drawn) [Echinocandin B] (X1-[ξOrn(4,5-diOH)]T[Hyp][ξhTyr(βξ-OH,γξ-OH)]T[ξPro(3ξ-OH,4ξ-Me)]; lactam 1-C; configuration not given here), the activity against dermatophytes result in the data set on dermatophytes [1] was “inactive against dermatophytes”.

Regarding `CCCCC/C=C\C/C=C\CCCCCCCC(=O)N[C@H]1C[C@@H](O)[C@@H](O)NC(=O)[C@@H]2[C@@H](O)[C@@H](C)CN2C(=O)[C@H]([C@@H](C)O)NC(=O)[C@H]([C@H](O)[C@@H](O)c2ccc(O)cc2)NC(=O)[C@@H]2C[C@@H](O)CN2C(=O)[C@H]([C@@H](C)O)NC1=O` [antibiotic A-22082] (Linoleoyl-[Orn(4R-OH,5R-OH)]T[Hyp][hTyr(3S-OH,4S-OH)]T[Pro(3S-OH,4S-Me)]; lactam 1-C), the “minimal inhibitory concentration (MIC) per disc” value in the data set with Candida albicans [2] came to 0.625 mcg./disc; in data set [3], 0.078 mcg./disc; in the data set on Candida tropicalis, 3.12 mcg./disc. Moreover, the MIC is on record as greater than 1.25 mcg/disc against Trichophyton gallinae; 0.0195 mcg/disc with Trichophyton meginini; greater than 1.25 mcg/disc in the data set on Trichophyton quinckeanum; “< .0098 mcg/disc” against Trichophyton rubrum; 0.0195 mcg/disc in data set [4]; 0.0195 mcg/disc against Trichophyton terrestre. In addition, the MIC against Nannizzia incurvata is on record as 0.312 mcg/disc; in the data set with Philaphere jean salemi, greater than 1.25 mcg/disc; in data set [5] it was 1.25 mcg/disc; in the data set on Keratinomyces ajellio, 0.156 mcg/disc. In addition, the activity against dermatophytes result in the data set on dermatophytes [6] is reported as “very active”; in the data set with dermatophytes [6] (listed as A-22082) it was “active against dermatophytes”. The results for the “ED50 (effective dose which protects 50 percent of the mice)” value with Candida albicans [7] (intraperitoneal administration) and in the data set on Candida albicans [7] (subcutaneous administration) were 30 mg/kg and 50 mg/kg, respectively. Further, the “protection against C. albicans” value with Candida albicans [7] (Candida albicans-infected mice) is “protection against C. albicans was provided”. The “signs of acute toxicity” value in the data set on mice (intraperitoneal, 100 mg./kg. twice per day for three days (total 600 mg./kg.)) is “no signs of acute toxicity”; with mice (ip, 200 mg./kg. 3 times over 24 hours (total 600 mg./kg.)) it was “no signs of acute toxicity”; in the data set on mice (subcutaneous, 100 mg./kg. twice per day for three days (total 600 mg./kg.)), “no signs of acute toxicity”. For the same molecule, in the data set “electrometric titration”, the pKa value is on record as 12.7. In addition, in “solubility” (diethyl ether, petroleum ether), the “solubility in nonpolar organic solvents” value is on record as “insoluble”. In “solubility” (especially those having a pH greater than 7.0), the “solubility in aqueous solutions” value is reported as “soluble”. Moreover, the “solubility in organic solvents” value in the data set “solubility” (methanol, ethanol, dimethylformamide, dimethyl sulfoxide, ethyl acetate) was “soluble”.
